Our source for the IC50 values is patent publication US20220274961A1, “SUBSTITUTED FUSED BI- OR TRI- HETEROCYCLIC COMPOUNDS AS EHMT2 INHIBITORS” (priority 2016, published 2022).

Assay [1] concerns the target T1, human EHMT2 913-1193 (Homo sapiens, UniProt Q96KQ7).
T1 construct: recombinant purified human EHMT2 913-1193, Viva; purchased Viva
T1 sequence (Q96KQ7 913-1193): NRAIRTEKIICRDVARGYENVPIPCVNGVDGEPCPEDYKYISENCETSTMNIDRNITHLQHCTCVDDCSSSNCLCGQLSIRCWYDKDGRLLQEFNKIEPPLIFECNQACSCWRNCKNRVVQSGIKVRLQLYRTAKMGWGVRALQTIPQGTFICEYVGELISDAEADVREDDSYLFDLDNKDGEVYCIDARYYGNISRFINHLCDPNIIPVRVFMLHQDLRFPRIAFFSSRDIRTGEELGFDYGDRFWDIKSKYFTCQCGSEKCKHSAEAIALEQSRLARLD
As to the kind of experiment: biochemical. The text has this:
Biotinylated histone peptides were synthesized by Biopeptide and HPLC-purified to >95% purity. Streptavidin Flashplates and seals were purchased from PerkinElmer and 384 Well V-bottom Polypropylene Plates were from Greiner. ^3H-labeled S-adenosylmethionine (^3H-SAM) was obtained from American Radiolabeled Chemicals with a specific activity of 80 Ci/mmol. Unlabeled SAM and S-adenosylhomocysteine (SAH) were obtained from American Radiolabeled Chemicals and Sigma-Aldrich respectively. […] 384-well Flashplates and 96-well filter binding plates were read on a TopCount microplate reader (PerkinElmer). Compound serial dilutions were performed on a Freedom EVO (Tecan) and spotted into assay plates using a Thermo Scientific Matrix PlateMate (Thermo Scientific). Reagent cocktails were added by Multidrop Combi (Thermo Scientific).
General Procedure for EHMT2 Enzyme Assay on Histone Peptide Substrate. 10-point curves of test compounds were made on a Freedom EVO (Tecan) using serial 3-fold dilutions in DMSO, beginning at 2.5 mM (final top concentration of compound was 50 μM and the DMSO was 2%). A 1 μL aliquot of the inhibitor dilution series was spotted in a polypropylene 384-well V-bottom plate (Greiner) using a Thermo Scientific Matrix PlateMate (Thermo Scientific). […] Reactions were incubated for 60 minutes at room temperature and quenched with 10 μL per well of 400 μM unlabeled SAM, then transferred to a 384-well streptavidin Flashplate (PerkinElmer) and washed in a Biotek ELx-405 well washer with 0.1% Tween after 60 minutes. 384-well Flashplates were read on a TopCount microplate reader (PerkinElmer).

Assay [2] concerns the target T2, EHMT1 (Homo sapiens, UniProt Q9H9B1).
T2 sequence (Q9H9B1 1-1298): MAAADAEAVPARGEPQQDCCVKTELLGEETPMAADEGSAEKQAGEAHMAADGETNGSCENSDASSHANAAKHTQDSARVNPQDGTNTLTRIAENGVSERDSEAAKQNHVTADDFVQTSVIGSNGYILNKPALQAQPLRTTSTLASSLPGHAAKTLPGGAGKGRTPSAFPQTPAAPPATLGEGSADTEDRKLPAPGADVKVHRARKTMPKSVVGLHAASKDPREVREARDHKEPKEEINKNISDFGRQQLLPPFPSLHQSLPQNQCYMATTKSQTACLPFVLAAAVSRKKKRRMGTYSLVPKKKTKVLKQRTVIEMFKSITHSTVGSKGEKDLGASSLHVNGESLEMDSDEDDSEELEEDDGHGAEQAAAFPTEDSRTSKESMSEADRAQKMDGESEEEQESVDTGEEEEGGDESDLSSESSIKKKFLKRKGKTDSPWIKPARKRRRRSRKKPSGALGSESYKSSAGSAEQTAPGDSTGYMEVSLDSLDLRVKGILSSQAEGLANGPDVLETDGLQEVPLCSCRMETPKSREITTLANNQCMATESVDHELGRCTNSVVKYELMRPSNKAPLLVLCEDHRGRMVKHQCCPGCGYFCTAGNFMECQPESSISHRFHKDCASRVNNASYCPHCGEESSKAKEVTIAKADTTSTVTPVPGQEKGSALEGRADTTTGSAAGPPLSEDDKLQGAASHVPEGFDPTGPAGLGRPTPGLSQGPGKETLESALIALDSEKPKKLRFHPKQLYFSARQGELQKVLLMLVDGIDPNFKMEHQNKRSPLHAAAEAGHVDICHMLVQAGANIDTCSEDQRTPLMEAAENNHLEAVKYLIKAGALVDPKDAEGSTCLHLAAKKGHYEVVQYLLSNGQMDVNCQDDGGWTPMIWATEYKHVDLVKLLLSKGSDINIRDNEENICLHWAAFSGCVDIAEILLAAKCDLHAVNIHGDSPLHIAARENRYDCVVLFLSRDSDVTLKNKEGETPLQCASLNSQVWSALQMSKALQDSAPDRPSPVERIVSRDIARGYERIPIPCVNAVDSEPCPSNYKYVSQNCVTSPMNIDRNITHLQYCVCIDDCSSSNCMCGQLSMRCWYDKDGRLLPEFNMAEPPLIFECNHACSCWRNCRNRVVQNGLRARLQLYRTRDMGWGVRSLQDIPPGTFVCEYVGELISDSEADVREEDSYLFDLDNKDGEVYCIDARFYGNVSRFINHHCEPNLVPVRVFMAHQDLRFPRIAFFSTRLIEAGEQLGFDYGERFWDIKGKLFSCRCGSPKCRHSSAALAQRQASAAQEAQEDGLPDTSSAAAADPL
As to the kind of experiment: EHMT1 PEP. Format: biochemical.

Where [3] appears, read: recombinant human EHMT2 913-1193, histone H3 1-15 peptide, 3H-SAM, balanced conditions, read-out: EHMT2 PEP (IC50 μM).

Where two headings read alike, the source gives them in different places.

A word on the IC50: it is the midpoint of a concentration-inhibition curve. As for `COc1cc2[nH]c(N)nc2cc1OCCCN1CCCC1` [Compound 1, 6-methoxy-5-(3-(pyrrolidin-1-yl)propoxy)-1H-benzo[d]imidazol-2-amine], the IC50 in assay [1] (setting [3]) and in assay [2] was less than 0.1 µM in each case.
Take `COc1cc2c(cc1OCCCN1CCCC1)nc(N)n2C` [Compound 2, 6-methoxy-1-methyl-5-(3-(pyrrolidin-1-yl)propoxy)-1H-benzo[d]imidazol-2-amine]: the IC50 in assay [1] (setting [3]) and in assay [2] was less than 0.1 µM each time.
Take `COc1cc2c(cc1OCCCN1CCCC1)nc(N)n2C1CCCC1` [Compound 3, 1-cyclopentyl-6-methoxy-5-(3-(pyrrolidin-1-yl)propoxy)-1H-benzo[d]imidazol-2-amine]: the IC50 in assay [1] (setting [3]) and in assay [2] was less than 0.1 µM each time.
Turning to `COc1cc2c(cc1OCCCN1CCCC1)N=C(N)C21CCOCC1` [Compound 5, 5-methoxy-6-(3-(pyrrolidin-1-yl)propoxy)-2′,3′,5′,6′-tetrahydrospiro[indole-3,4′-pyran]-2-amine], the IC50 in assay [1] (setting [3]) and in assay [2] was less than 0.1 µM each time.
On to `COc1cc2sc(N)nc2cc1OCCCN1CCCC1` [Compound 6, 6-methoxy-5-[3-(pyrrolidin-1-yl)propoxy]-1,3-benzothiazol-2-amine], for which the IC50 in assay [1] (setting [3]) and in assay [2] was 1 to 10 µM in each case.
As for `COc1cc2c(cc1OCCCN1CCCC1)N=C(N)C21CCOC1` (stereo not shown) [Compound 7, 5′-methoxy-6′-(3-(pyrrolidin-1-yl)propoxy)-4,5-dihydro-2H-spiro[furan-3,3′-indol]-2′-amine], the IC50 in assay [1] and in assay [2] was less than 0.1 µM each time.
In the case of `CNc1nc2cc(OCCCN3CCCC3)c(OC)cc2n1C` [Compound 8, 6-methoxy-N,1-dimethyl-5-(3-(pyrrolidin-1-yl)propoxy)-1H-benzo[d]imidazol-2-amine], the half-maximal inhibitory concentration (IC50) in assay [1] (setting [3]) and in assay [2] was less than 0.1 µM in each case.
Turning to `CCN1CC[C@@H](COc2cc3nc(N)n(C4CCCC4)c3cc2OC)C1` [Compound 9, 1-cyclopentyl-5-[[(3R)-1-ethylpyrrolidin-3-yl]methoxy]-6-methoxy-1H-1,3-benzodiazol-2-amine], the IC50 in assay [1] (setting [3]) and in assay [2] was less than 0.1 µM each time.
For `CCN1CC(COc2cc3nc(N)n(C4CCCC4)c3cc2OC)C1` [Compound 10, 1-cyclopentyl-5-((1-ethylazetidin-3-yl)methoxy)-6-methoxy-1H-benzo[d]imidazol-2-amine], the results for the IC50 in assay [1] (setting [3]) and in assay [2] were 0.1 to 1 µM and less than 0.1 µM, respectively.
For `COc1cc2c(cc1OCCCN1CCCC1)nc(N)n2CC(F)(F)F` [Compound 11, 6-methoxy-5-(3-(pyrrolidin-1-yl)propoxy)-1-(2,2,2-trifluoroethyl)-1H-benzo[d]imidazole-2-amine], in that order: 0.1 to 1 µM and 0.1 to 1 µM.
On the same counts, the results for `COc1cc2c(cc1OCCCN1CCCC1)nc(NCC(F)(F)F)n2C` [Compound 12, 6-methoxy-1-methyl-5-(3-(pyrrolidin-1-yl)propoxy)-N-(2,2,2-trifluoroethyl)-1H-benzo[d]imidazol-2-amine] are 1 to 10 µM and 1 to 10 µM.
Take `CNc1nc2cc(OCCCN3CCCC3)c(OC)cc2n1C1CCOCC1` [Compound 13, 6-methoxy-N-methyl-5-(3-(pyrrolidin-1-yl)propoxy)-1-(tetrahydro-2H-pyran-4-yl)-1H-benzo[d]imidazol-2-amine]: the concentration for half-maximal inhibition (IC50) in assay [1] (setting [3]) and in assay [2] was less than 0.1 µM each time.
Take `COc1cc2c(cc1OCCCN1CCCC1)nc(N)n2CC1CCOCC1` [Compound 18]: the half-maximal inhibitory concentration (IC50) in assay [1] (setting [3]) and in assay [2] was 0.1 to 1 µM each time.
In the case of `COc1cc2c(cc1OCCCN1CCCC1)nc(N)n2C(C)C` [Compound 19], the IC50 in assay [1] (setting [3]) and in assay [2] was less than 0.1 µM in each case.
In the case of `COc1cc2c(cc1OCCCN1CCCC1)nc(C)n2C` [Compound 21, 6-methoxy-1,2-dimethyl-5-(3-(pyrrolidin-1-yl)propoxy)-1H-benzo[d]imidazole], the 50% inhibitory concentration (IC50) in assay [1] (setting [3]) and in assay [2] was 1 to 10 µM throughout.
Take `COc1cc2c(cc1OCCCN1CCCC1)nc(C1CCCC1)n2C` [Compound 22, 2-cyclopentyl-6-methoxy-1-methyl-5-(3-(pyrrolidin-1-yl)propoxy)-1H-benzo[d]imidazole]: the IC50 in assay [1] (setting [3]) and in assay [2] was 1 to 10 µM in each case.
Consider `COc1cc2c(cc1OCCCN1CCCC1)nc(C)n2C1CCCC1` [Compound 23, 1-cyclopentyl-6-methoxy-2-methyl-5-(3-(pyrrolidin-1-yl)propoxy)-1H-benzo[d]imidazole], for which the results for the IC50 in assay [1] (setting [3]) and in assay [2] were 0.1 to 1 µM and 1 to 10 µM, respectively.
For `COc1cc2c(cc1C#CCN1CCCC1)N=C(N)C21CCC1` [Compound 24, 5′-methoxy-6′-(3-(pyrrolidin-1-yl)prop-1-yn-1-yl)spiro[cyclobutane-1,3′-indol]-2′-amine], in that order: less than 0.1 µM and less than 0.1 µM.
On the same counts, the results for `CNc1nc2cc(OC[C@H](O)CN3CCC3)c(OC)cc2n1C` [Compound 25] are 0.1 to 1 µM and less than 0.1 µM.
For `CNc1nc2cc(OC[C@H](O)CN3CCCC3)c(OC)cc2n1C` [Compound 26], in that order: 0.1 to 1 µM and less than 0.1 µM.
For `CCNc1nc2cc(OCCCN3CCCC3)c(OC)cc2n1C` [Compound 27], the figures for the 50% inhibitory concentration (IC50) in assay [1] (setting [3]) and in assay [2] were 0.1 to 1 µM and less than 0.1 µM, respectively.
For `COc1cc2c(cc1OCCCN1CCCC1)nc(NC(C)C)n2C` [Compound 28], in that order: 0.1 to 1 µM and 0.1 to 1 µM.
On the same counts, the results for `COc1cc2c(cc1OCCCN1CCCC1)nc(NC1CCOCC1)n2C` [Compound 29] are 1 to 10 µM and 1 to 10 µM.
On the same counts, the results for `COc1cc2c(cc1OCCCN1CCCC1)nc(NC1CCCC1)n2C` [Compound 30] are 0.1 to 1 µM and 0.1 to 1 µM.
Turning to `CCNc1nc2cc(OC[C@H](O)CN3CCCC3)c(OC)cc2n1C` [Compound 31], the 50% inhibitory concentration (IC50) was 0.1 to 1 µM in assay [1] (setting [3]) and less than 0.1 µM in assay [2].
On the same counts, the results for `COc1cc2c(cc1OC[C@H](O)CN1CCCC1)nc(NC(C)C)n2C` [Compound 32] are 0.1 to 1 µM and 0.1 to 1 µM.
For `COc1cc2c(cc1OC[C@H](O)CN1CCCC1)nc(NC1CCCC1)n2C` [Compound 33], in that order: 0.1 to 1 µM and 0.1 to 1 µM.
Turning to `COc1cc2c(cc1OC[C@H](O)CN1CCCC1)nc(NCC1CC1)n2C` [Compound 34], the concentration for half-maximal inhibition (IC50) in assay [1] (setting [3]) was 0.1 to 1 µM; in assay [2], less than 0.1 µM.
For `COc1cc2c(cc1OC[C@H](O)CN1CCCC1)nc(NC1CCOCC1)n2C` [Compound 35], in that order: 1 to 10 µM and 1 to 10 µM.
